Several values for one entry are separate records, joined by “and”; a condition that tells them apart may be missing. Equal values may be shown once. Read-outs that look alike come from different tables or passages of the source.
Columns and labels:
5-HT2A = target: T1, 5-HT2A (Homo sapiens, UniProt P28223); assay: FLIPR Ca2+ flux functional assay, 5-HT2A receptor (stably transfected HEK293); format: cell-based
T1 construct: host or cells: HEK293
Description: (§1) Activity at 5-HT2A, 5-HT2B and 5-HT2C receptors was determined using a FLIPR Ca^2+ flux assay at WuXi AppTec Co. Ltd. (Hong Kong) Discovery Biology Unit according to their standard protocols. Briefly, stably transfected cells expressing the receptor of interest (HEK293 for 5-HT2A and 5-HT2C; CHO-K1 for 5-HT2B) were grown and plated in a 384 well plate and incubated at 37° C. and 5% CO2 overnight. A 250 mM stock solution of probenecid in FLIPR calcium assay buffer (10 mL) was freshly prepared and combined with a fluorescent dye (Fluo-4 Direct) to give a final assay concentration of 2.5 mM. Reference compounds were 4-fold serially diluted and the screening compounds were 3-fold serially diluted in 100% DMSO for 10 points using Agilent Bravo, and 750 nL was added to a 384 well compound plate using Echo along with 30 μL assay buffer. The fluorescent dye was then added to the assay plate along with assay buffer to a final volume of 40 μL. The cell plate was incubated for 50 min at 37° C. and 5% CO2 and placed into the FLIPR Tetra along with the compound plate. 10 μL of references and compounds were then transferred from the compound plate into the cell plate and the fluorescent signal was read.

5-HT2C = target: T2, 5-HT2C (Homo sapiens, UniProt P28335); assay: FLIPR Ca2+ flux functional assay, 5-HT2C receptor (stably transfected HEK293); format: cell-based
T2 construct: host or cells: HEK293
T2 sequence (P28335 33-458): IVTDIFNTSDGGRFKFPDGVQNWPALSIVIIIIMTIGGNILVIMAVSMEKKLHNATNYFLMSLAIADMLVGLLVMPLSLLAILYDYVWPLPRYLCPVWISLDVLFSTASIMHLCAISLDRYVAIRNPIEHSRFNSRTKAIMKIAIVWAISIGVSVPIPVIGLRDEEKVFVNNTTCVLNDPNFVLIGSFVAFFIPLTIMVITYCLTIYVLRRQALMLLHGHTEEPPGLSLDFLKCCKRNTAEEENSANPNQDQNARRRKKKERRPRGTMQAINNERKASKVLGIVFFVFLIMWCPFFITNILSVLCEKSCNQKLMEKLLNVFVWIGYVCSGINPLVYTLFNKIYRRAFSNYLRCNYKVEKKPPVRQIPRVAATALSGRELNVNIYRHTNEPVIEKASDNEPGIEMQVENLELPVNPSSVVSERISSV
Description: as §1

[1] = In vivo pharmacokinetics: plasma and brain exposure after IP administration; parameters: species or system male C57BL/6 mice; conditions: for B:P Ratio Individual / Plasma Concentration (μM) Individual / concentration at 0.5 h / concentration at 0.083 h / concentration at 4 h / Kp at 0.083 h / Kp at 0.5 h / Kp at 4 h / Kp: 10 mg/kg; for Kp at 0.083 h / Kp at 0.5 h / Kp at 4 h / Kp: brain/plasma
Description: The study was conducted using established procedures in accordance with the Australian Code of Practice for the Care and Use of Animals for Scientific Purposes, and the study protocols were reviewed and approved by the Monash Institute of Pharmaceutical Sciences Animal Ethics Committee.
The systemic exposure of selected examples was studied in non-fasted male C57BL/6 mice weighing between 22.3-26.2 g. Mice had access to food and water ad libitum throughout the pre- and post-dose sampling period.
On the day of dosing, the formulation of each compound was prepared by dissolving solid compound in phosphate buffer saline (50 mM) using vortexing, creating colourless solutions (pH 6.1-6.3) for each compound.
Compounds were dosed to mice by IP injection (10 mL/kg dose volume via a 27G needle; n=9 mice per compound) and blood samples were collected at 5 and 30 min; 1, 2 and 4 h post-dose (n=3 mice per time point for each compound). A maximum of three blood samples were obtained from each mouse, with plasma samples being taken via submandibular bleed (approximately 120 μL). Once collected, blood samples were centrifuged immediately, supernatant plasma was removed, and stored at −80° C. until analysis by LCMS. In addition, at the 5 and 30 min and 4 h post-dose time points, the whole brain was rapidly removed from the carcass soon after the blood collection. The whole brains were blotted to remove excess blood, placed into pre-weighed polypropylene vials, and weighed. The brains were snap frozen in dry ice and subsequently stored frozen (−80° C.) until analysis.
Concentrations of test compound in plasma and tissue samples were determined using an LCMS/MS method validated for linearity, accuracy, precision, matrix factor and recovery (Table 2).
Test compound standard solutions were diluted from a concentrated stock solution (1 mg/mL in DMSO) using 50% acetonitrile in water (v/v) and a calibration curve was prepared in a matched matrix to the test samples.
Plasma: The plasma calibration curve was prepared by spiking aliquots of blank mouse plasma (25 μL) with test compound standard solutions (5 μL) and internal standard solution (5 μL of diazepam, 5 μg/mL in 50% acetonitrile in water). Test plasma samples (25 μL) were thawed, mixed, and then spiked with internal standard solution (5 μL). Plasma protein precipitation was performed by addition of acetonitrile (3-fold volume ratio) and thorough vortex mixing. Samples were centrifuged (RCF=9391×g) for 3 minutes and the supernatant (90 μL) was collected for analysis.
Tissue: Pre-weighed tissue samples (brain) were homogenised using a glass rod in buffer containing an EDTA/potassium fluoride solution (0.1 M/4 mg/mL) as a stabilisation cocktail to minimise the potential for ex vivo degradation (3 mL cocktail/g tissue). The tissue homogenate was briefly centrifuged (RCF=79×g) for 10 seconds to separate the foam layer before transferring an aliquot of the tissue homogenate (200 μL) to a fresh Eppendorf tube for sample extraction. Calibration standards were prepared by spiking blank brain homogenate (200 μL) with the solution standards (10 μL) and the internal standard (10 μL). Study samples were similarly prepared, except that acetonitrile (10 μL) was added instead of solution standards to maintain the same volume. Protein precipitation was carried out by the addition of a 3-fold volume of acetonitrile, followed by vortex mixing and centrifugation (RCF=9391×g) for 3 min to recover the supernatant for analysis.
Replicate analysis: Triplicate analytical replicate (ARs) samples were prepared similarly to the standards for each sample type at three concentrations (50, 500 and 2,000 ng/mL) and repeat injections of these ARs were included throughout the analytical run to assess assay performance. The extraction of the test compound from the standards and ARs were conducted as described above. […]

[2] = agonist activity, Ca2+ flux, HEK293
[3] = IP 10 mg/kg, 0.083 h, individual mice
[4] = IP 10 mg/kg, 0.5 h, individual mice
[5] = IP 10 mg/kg, 4 h, individual mice
[6] = male, C57BL/6, mouse, plasma, IP 10 mg/kg

T1 sequence (P28223 whole entry): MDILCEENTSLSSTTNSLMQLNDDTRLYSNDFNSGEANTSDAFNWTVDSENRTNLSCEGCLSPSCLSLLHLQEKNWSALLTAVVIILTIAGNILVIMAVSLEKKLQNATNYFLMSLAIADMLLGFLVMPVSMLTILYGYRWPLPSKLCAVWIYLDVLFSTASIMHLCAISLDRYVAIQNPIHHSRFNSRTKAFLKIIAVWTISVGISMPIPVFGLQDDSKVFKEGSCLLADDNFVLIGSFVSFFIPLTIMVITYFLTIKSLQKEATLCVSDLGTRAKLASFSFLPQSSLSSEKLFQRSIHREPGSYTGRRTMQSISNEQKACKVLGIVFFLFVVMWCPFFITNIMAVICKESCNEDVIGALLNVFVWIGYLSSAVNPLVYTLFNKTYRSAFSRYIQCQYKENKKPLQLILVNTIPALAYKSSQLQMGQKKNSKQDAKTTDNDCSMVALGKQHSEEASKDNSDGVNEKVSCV

SMILES: COc1ccc2cccc(CCN(C)C(C)C)c2c1 [Example I-7, N-(2-(7-methoxynaphthalen-1-yl)ethyl)-N-methylpropan-2-amine]
- EC50 (5-HT2A): 164 nM
- Emax (5-HT2A; [2]): 84%
- EC50 (5-HT2C): 603 nM
- Emax (5-HT2C; [2]): 56%
- Brain AUC0-4 h ([1]; IP 10 mg/kg): 32.3 µM·h
- B:P Ratio Individual [1, 3]: 11 and 8.9
- Plasma Concentration (μM) Individual [1, 3]: 0.896 µM and 1.00 µM
- concentration at 0.5 h ([1]; IP 10 mg/kg, 0.083 h, individual mice, read-out: Brain Parenchyma Concentration (μM) Individual): 9.90 µM and 8.88 µM
- B:P Ratio Individual [1, 4]: 18 and 26
- Plasma Concentration (μM) Individual [1, 4]: 0.947 µM and 1.55 µM
- concentration at 0.5 h ([1]; IP 10 mg/kg, 0.5 h, individual mice, read-out: Brain Parenchyma Concentration (μM) Individual): 17.9 µM and 17.5 µM and 40.1 µM
- B:P Ratio Individual [1, 5]: 14 and 11
- Plasma Concentration (μM) Individual [1, 5]: 0.0483 µM and 0.0571 µM
- concentration at 0.5 h ([1]; IP 10 mg/kg, 4 h, individual mice, read-out: Brain Parenchyma Concentration (μM) Individual): 0.696 µM and 0.639 µM
- concentration at 0.083 h ([1]; male, C57BL/6, mouse, brain, ip, 0.083 h, individual mice, read-out: Brain Parenchyma Concentration (μM) Individual): 6.41 µM
- concentration at 0.083 h ([1]; male, C57BL/6, mouse, brain, ip, 0.083 h, n = 3, read-out: Brain Parenchyma Concentration (μM) Mean ± SD): 8.4 ± 1.79 µM
- concentration at 0.5 h ([1]; male, C57BL/6, mouse, brain, ip, 0.5 h, n = 3, read-out: Brain Parenchyma Concentration (μM) Mean ± SD): 25.2 ± 13 µM
- concentration at 4 h ([1]; male, C57BL/6, mouse, brain, ip, 4 h, individual mice, read-out: Brain Parenchyma Concentration (μM) Individual): 1.14 µM
- concentration at 4 h ([1]; male, C57BL/6, mouse, brain, ip, 4 h, n = 3, read-out: Brain Parenchyma Concentration (μM) Mean ± SD): 0.0825 µM
- Kp at 0.083 h ([1]; male, C57BL/6, mouse, ip, 0.083 h, individual mice, read-out: B:P Ratio Individual): 9.2
- Kp at 0.083 h ([1]; male, C57BL/6, mouse, ip, 0.083 h, n = 3, read-out: B:P Ratio Mean ± SD): 9.7 ± 1.2
- Kp at 0.5 h ([1]; male, C57BL/6, mouse, ip, 0.5 h, individual mice, read-out: B:P Ratio Individual): 17
- Kp at 0.5 h ([1]; male, C57BL/6, mouse, ip, 0.5 h, n = 3, read-out: B:P Ratio Mean ± SD): 21 ± 4.6
- Kp at 4 h ([1]; male, C57BL/6, mouse, ip, 4 h, individual mice, read-out: B:P Ratio Individual): 16
- Kp at 4 h ([1]; male, C57BL/6, mouse, ip, 4 h, n = 3, read-out: B:P Ratio Mean ± SD): 14 ± 2.4
- Kp ([1]; male, C57BL/6, mouse, ip, (fu, brain * AUCbrain, 0-4 h)/(fu, plasma * AUCplasma, 0-4 h), read-out: (Unbound) time-averaged B:P): 3.2
- Kp ([1]; male, C57BL/6, mouse, ip, AUCbrain, 0-4 h/AUCplasma, 0-4 h, read-out: (Total) time-averaged B:P): 18
- concentration at 0.083 h ([1]; male, C57BL/6, mouse, plasma, ip, 0.083 h, individual mice, read-out: Plasma Concentration (μM) Individual): 0.695 µM
- concentration at 0.083 h ([1]; male, C57BL/6, mouse, plasma, ip, 0.083 h, n = 3, read-out: Plasma Concentration (μM) Mean ± SD): 0.864 ± 0.155 µM
- concentration at 0.5 h ([1]; male, C57BL/6, mouse, plasma, ip, 0.5 h, individual mice, read-out: Plasma Concentration (μM) Individual): 1.03 µM
- concentration at 0.5 h ([1]; male, C57BL/6, mouse, plasma, ip, 0.5 h, n = 3, read-out: Plasma Concentration (μM) Mean ± SD): 1.18 ± 0.329 µM
- concentration at 4 h ([1]; male, C57BL/6, mouse, plasma, ip, 4 h, individual mice, read-out: Plasma Concentration (μM) Individual): 0.0723 µM
- concentration at 4 h ([1]; male, C57BL/6, mouse, plasma, ip, 4 h, n = 3, read-out: Plasma Concentration (μM) Mean ± SD): 0.0592 ± 0.0121 µM
- Cmax [1, 6]: 1180 nM
- Tmax [1, 6]: 30 min
- AUC(0-t) ([1]; male, C57BL/6, mouse, plasma, IP 10 mg/kg, read-out: Plasma AUC0-4 h): 1.82 µM·h
- AUC(0-inf) ([1]; male, C57BL/6, mouse, plasma, IP 10 mg/kg, read-out: Plasma AUC0-inf): 1.89 µM·h
- half-life ([1]; male, C57BL/6, mouse, IP 10 mg/kg, plasma, read-out: Apparent t1/2 (converted)): 46.2 min

Source: patent US20250333371A1, “COMPOUNDS” (PSYLO PTY LTD, priority 2022, published 2025)
